Laboratory results: ChEMBL document CHEMBL4043262, “Plasma-induced dimerization of phloridzin as a new class of anti-adipogenic agents” (Bioorg Med Chem Lett, 2017)

Assays:
[1] = target: T1, Pancreatic triacylglycerol lipase (Sus scrofa, UniProt P00591); assay: Inhibition of porcine pancreatic lipase using p-nitrophenyl butyrate as substrate pretreated for 15 mins followed by substrate addition measured after 15 mins in presence of plasma by spectrophotometric method
T1 sequence (P00591 whole entry): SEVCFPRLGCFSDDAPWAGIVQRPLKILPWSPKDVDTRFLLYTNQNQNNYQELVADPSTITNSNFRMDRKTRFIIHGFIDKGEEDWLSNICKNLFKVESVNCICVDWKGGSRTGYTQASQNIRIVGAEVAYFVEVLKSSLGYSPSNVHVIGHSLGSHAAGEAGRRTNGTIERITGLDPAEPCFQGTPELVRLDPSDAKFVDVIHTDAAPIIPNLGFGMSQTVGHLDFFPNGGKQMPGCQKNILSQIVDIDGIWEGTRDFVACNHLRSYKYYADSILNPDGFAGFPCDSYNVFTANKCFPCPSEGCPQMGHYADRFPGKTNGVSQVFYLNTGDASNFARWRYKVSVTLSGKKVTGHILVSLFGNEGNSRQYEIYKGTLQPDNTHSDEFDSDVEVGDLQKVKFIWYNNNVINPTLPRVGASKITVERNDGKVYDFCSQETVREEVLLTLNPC

[2] = system: 3T3-L1; assay: Cytotoxicity against mouse 3T3L1 cells up to 48 hrs by MTT assay; format: cell-based; settings: 3t3-l1, 48 h
[3] = target: T1, Pancreatic triacylglycerol lipase; assay: Inhibition of porcine pancreatic lipase using p-nitrophenyl butyrate as substrate pretreated for 15 mins followed by substrate addition measured after 15 mins by spectrophotometric method
[4] = system: 3T3-L1; assay: Anti-adipogenic activity in mouse 3T3L1 cells assessed as reduction in lipid accumulation at 100 uM administered for 8 days measured post last dose by Oil Red O staining based assay relative to control; format: functional; set-up: scale not given: the % may be the effect or the level left
[5] = system: 3T3-L1; assay: Anti-adipogenic activity in mouse 3T3L1 cells assessed as reduction in lipid accumulation at 50 uM administered for 8 days measured post last dose by Oil Red O staining based assay relative to control; format: functional; set-up: scale not given: the % may be the effect or the level left
[6] = system: 3T3-L1; assay: Anti-adipogenic activity in mouse 3T3L1 cells assessed as reduction in lipid accumulation at 25 uM administered for 8 days measured post last dose by Oil Red O staining based assay relative to control; format: functional; set-up: scale not given: the % may be the effect or the level left

Structure (SMILES)	IC50 [1]	IC50 [3]	Activity [2]	Activity [4]	Activity [5]	Activity [6]
O=C(CCc1ccc(O)cc1)c1c(O)cc(O)cc1O[C@@H]1O[C@H](CO)[C@@H](O)[C@H](O)[C@H]1O [PHLORIZIN]	68.3 µM	> 300 µM	Non-Toxic	–	–	–
O=C(CCc1ccc(O)cc1)c1c(O)cc(O)c(Cc2c(O)cc(O)c(C(=O)CCc3ccc(O)cc3)c2O)c1O	–	5.2 µM	Non-Toxic	36.5%	45.7%	60.3%
O=C(CCc1ccc(O)cc1)c1c(O)cc(O)c(Cc2c(O)cc(O[C@@H]3O[C@H](CO)[C@@H](O)[C@H](O)[C@H]3O)c(C(=O)CCc3ccc(O)cc3)c2O)c1O	–	14.7 µM	Non-Toxic	–	–	–

More lines, main results first:

IC50 [1]	IC50 [3]	Structure (SMILES)	Activity [2]	Activity [4]	Activity [5]	Activity [6]
–	50.4 µM	O=C(CCc1ccc(O)cc1)c1c(O)cc(O)cc1O [PHLORETIN]	Non-Toxic	–	–	–
–	257 µM	O=C(CCc1ccc(O)cc1)c1c(O[C@@H]2O[C@H](CO)[C@@H](O)[C@H](O)[C@H]2O)cc(O)c(Cc2c(O)cc(O[C@@H]3O[C@H](CO)[C@@H](O)[C@H](O)[C@H]3O)c(C(=O)CCc3ccc(O)cc3)c2O)c1O	Non-Toxic	–	–	–
